Measured values published in patent US4622312A, “Growth hormone releasing factor analogs” (Hoffmann-La Roche Inc., priority 1984, dated 1986).
No end group written: not given here.

Tests used:
[1] = tested on: rat pituitary cells in tissue culture; assay: stimulation of growth hormone production in rat pituitary cells in tissue culture (RIA for rat growth hormone); assay type: cell-based
Description: Biological activity of the synthetic GRF(1-44)NH2 was identical to the natural GRF(1-44)NH2 which was isolated from a human pancreatic tumor of an individual suffering from acromegaly (Salk Institute standard hGRF--NH2 (NL-A-10)). The assay for biological activity, which is based on the ability to stimulate production of growth hormone in rat pituitary cells in tissue culture, was performed in the following manner.
Pituitaries from 30-40 male Sprague-Dawley rats (175 g) were removed aseptically after decapitation. The anterior lobes were collected, washed 3 times in sterile Hepes buffer (0.025M) (pH 7.35) and dispersed at 37° C. in 20-30 ml Hepes buffer (pH 7.35) containing collagenase (4 mg per ml) and Dispase (Protease grade II, 2 mg per ml). After gentle 100-110-min. vortexing and trituration by Pasteur pipette, the dispersed cells were separated by centrifugation (150×g, 4 min) and re-suspended in Hepes buffer containing neuraminidase (8 μg/ml), and 200 µg/ml ethylenedinitrisotetraacetic acid (EDTA) disodium salt pH 7.35, for 10 min. The cells were washed twice with plating medium and plated on multiwell-plates (1.5×10^5 cells per ml) using the following defined medium: F-12/DMEM/(6:3:1) (Gibco: 430-1700/430-1600/320-2591) with 2 g BSA/l., 2.38 g Hepes/1.50 mg PSN antibiotic mixture (Gibco Laboratories). The medium in each well was supplemented either with a sample of the novel GRF peptide or natural GRF(1-44)--NH2 at concentrations ranging from 0.8 to 200 fmol. per ml. of medium. Control wells contained no supplement. Plating was done with this medium added with 2% fetal calf serum to ensure rapid fixation of the cells. On the fourth day the cells were washed twice with the defined medium without fetal calf serum. Finally 900 μl of defined medium was added to each well plus 100 μl of the same medium containing each individual treatment, in triplicate. After 4 hours of incubation the medium was collected and diluted as required to conduct radioimmunoassay (RIAs) for rat growth hormone. […]

[2] = Rivier and Vale et al., Nature 300, 276-278 (1982); cited from earlier work

With “YADAIFTNSYRKVLAQLSARKLLQDIMSR-NH2 [(Ala^15)-GRF(1-29)NH2, [Ala^15]-hGRF(1-29)-NH2]” as the molecule, how does the “potency relative to GRF(1-29)NH2 (unsubstituted shortened GRF)” value ([1]; growth hormone release, 4 hours of incubation) read?
Its value is 4.1 times.

And the “potency relative to GRF (1-44)NH2” value ([1]; on a weight for weight basis, growth hormone release, 4 hours of incubation)?
The value was 5.1 times.

With GRF(1-29)NH2 as the molecule, how does the “intrinsic activity and potency in vitro” value [2] read?
Its value is “full intrinsic activity and potency”.

For `CC[C@H](C)[C@H](NC(=O)[C@H](C)NC(=O)[C@H](CC(=O)O)NC(=O)[C@H](C)NC(=O)[C@@H](N)Cc1ccc(O)cc1)C(=O)N[C@@H](Cc1ccccc1)C(=O)N[C@H](C(=O)N[C@@H](CC(N)=O)C(=O)N[C@@H](CO)C(=O)N[C@@H](Cc1ccc(O)cc1)C(=O)N[C@@H](CCCNC(=N)N)C(=O)N[C@@H](CCCCN)C(=O)N[C@H](C(=O)N[C@@H](CC(C)C)C(=O)NCC(=O)N[C@@H](CCC(N)=O)C(=O)N[C@@H](CC(C)C)C(=O)N[C@@H](CO)C(=O)N[C@@H](C)C(=O)N[C@@H](CCCNC(=N)N)C(=O)N[C@@H](CCCCN)C(=O)N[C@@H](CC(C)C)C(=O)N[C@@H](CC(C)C)C(=O)N[C@@H](CCC(N)=O)C(=O)N[C@@H](CC(=O)O)C(=O)N[C@H](C(=O)N[C@@H](CCSC)C(=O)N[C@@H](CO)C(=O)N[C@@H](CCCNC(=N)N)C(=O)N[C@@H](CCC(N)=O)C(=O)N[C@@H](CCC(N)=O)C(=O)NCC(=O)N[C@@H](CCC(=O)O)C(=O)N[C@@H](CO)C(=O)N[C@@H](CC(N)=O)C(=O)N[C@@H](CCC(N)=O)C(=O)N[C@@H](CCC(=O)O)C(=O)N[C@@H](CCCNC(=N)N)C(=O)NCC(=O)N[C@@H](C)C(=O)N[C@@H](CCCNC(=N)N)C(=O)N[C@@H](C)C(=O)N[C@@H](CCCNC(=N)N)C(=O)N[C@@H](CC(C)C)C(N)=O)[C@@H](C)CC)C(C)C)[C@@H](C)O` [GRF(1-44)NH2], which “biological activity compared with natural GRF(1-44)NH2 (Salk Institute standard hGRF-NH2 (NL-A-10))” value ([1]; synthetic versus natural peptide isolated from a human pancreatic tumor) is on record?
The value was “identical”.
